Data as given in patent US20230321063A1, “COMPOSITIONS AND METHODS TO REDUCE NEUROINFLAMMATION” (Seattle Children's Hospital d/b/a Seattle Children's …, priority 2020, published 2023).
Entries after “also recorded” stand apart in the source; their conditions may differ.

How the values were obtained:
Ndufs4(KO) mice [1] = settings: rapamycin at doses sufficient to attenuate disease; Johnson et al.; cited from earlier work
[2] = tested on: Ndufs4(KO) mouse model of LS; experiment: Survival studies and overall disease course in Ndufs4(KO) mice; assay type: in vivo; settings: for impact on disease (overall) / disease or survival: Ndufs4(KO) mice; for survival: Ndufs4(KO) mice vs untreated
Protocol: (§1) Ndufs4(+/−) mice were bred to produce Ndufs4(KO) (Ndufs4(−/−)) offspring. Mice were weaned at 20-21 days of age. Ndufs4(KO) animals were housed with a minimum of one control littermate for warmth and stimulation. Mice were weighed, and health assessed, a minimum of 3 times per week, every other day (daily for IP injected mice, see herein). Where longitudinal blood point-of-care data was collected, this was performed during these health checks. Wetted chow in a dish on the bottom of each cage, and in-cage water bottles, were provided to all cages housing Ndufs4(KO) mice following the onset of disease so that the ability to find or reach food or water was not a limiting factor for survival.
Doses of each drug was based on published data for use in animals. […] Blood and tissue concentrations reached biologically relevant levels for each of the tested inhibitors.
Pharmacologic interventions and chow formulation. Standard mouse chow was ground to a power and mixed with drugs at the doses desired (see FIGS. 4A-4L). 300 mL of 1% agar melted in sterile water was added per kilogram of powdered chow and the mixture was pelleted and baked at 37° C. for 3-5 hours to dry. Pellets were then stored at 4° C. for short term (up to 90 days) or −20° C. for long-term (up to 6 months) storage. It was previously shown that this processing had no impact on animal health or survival (Johnson et al. Front Genet. 2015; 6:247). […]
To determine whether the benefits of mTOR inhibition in Ndufs4(KO) model result from disruption of PI3K mediated signaling, animals were treated from weaning (post-natal day 21, P21) with potent, orally available, isoform specific inhibitors of the catalytic subunits of PI3K: BYL719, GSK2636771, CAL-101, and IPI-549, inhibitors of p110α, p110β, p110δ, and p110γ, respectively.

Ndufs4(KO) mice [3] = experiment: Longitudinal assessment of neurological disease symptoms (clasping, ataxia, circling); assay type: in vivo, mouse; settings: Ndufs4(KO) mice vs untreated
Protocol: Longitudinal assessments of neurological disease symptoms. Clasping, ataxia, and circling were assessed by visual scoring, as previously described. As disease progresses in the Ndufs4(KO) mice animals display intermittent/transient improvement of symptoms. […] For observational assessments, lab-wide quality control discussions occurred frequently to ensure consistency between technicians/researchers. Technicians contributed equally to each treatment group to minimize any potential bias between individuals.

Ndufs4(KO) mice [4] = experiment: Rotarod assay; assay type: in vivo, mouse; settings: latency to fall up to 10 min, 6 rpm
Protocol: Rotarod and rotarod seizures. Rotarod assays were performed using a Med Associates Inc. (Fairfax, VT) ENV-571M single lane rotarod with a black mat installed in the floor of the lane to reduce visibility of the bottom. Assays were performed by placing animals onto an already rotating rod and timing latency to fall, with a steady rotation speed set to 6 rpm (controlled by attached laptop and Med Associates software). The maximum time of each trial was 10 min, with the trial ending at that time if mice were still on the rotarod. For each assay, three trials were performed, with a minimum of 5 min between each assay. The best of the three trials was reported for the rotarod data. As detailed in the text and figure legends, rotarod was performed each 10 days of age from P30; mice in a given age group were the reported age +/−1 day.

Ndufs4(KO) mice [5] = experiment: Body weight, growth and cachexia onset; assay type: in vivo, mouse
Protocol: as §1
Cachexia in FIG. 4H and FIG. 6E is the day of life when weight peaks prior to the progressive weight loss which occurs in untreated Ndufs4(KO) animals.

Ndufs4(KO) mice [6] = experiment: Point-of-care blood glucose by age; assay type: in vivo, mouse
Text: (§2) Point-of-care glucose and lactate testing. Blood glucose and lactate measurements were collected using point-of-care meters (Prodigy Autocode® glucose meter, product #51850-3466188, Prodigy® Diabetes Care, LLC, Charlotte, NC; lactate assay meter, product #40828, Nova Biomedical, Waltham, MA) and the tail-prick method, as previously described (Stokes et al. Elife 2021; 10:e65400).

[7] = tested on: control and Ndufs4(KO) mice; experiment: Glucose tolerance test (GTT) and glucose induced lactate test; assay type: in vivo, mouse; settings: 2 g/kg glucose IP; pexidartinib 300 mg/kg/d in chow, IPI-549 100 mg/kg/d in chow, rapamycin (ABI-009) 8 mg/kg/d IP
Text: as §2
Glucose tolerance test (GTT) and glucose induced lactate test. Prior to performing the GTT, mice were fasted for 4 hours, from 10 AM-2 PM. The fasting duration was limited to 4 hours given the sensitivity of untreated Ndufs4(KO) animals to hypoglycemia and related sequelae (dysregulation of body temperature, hypoglycemia induced seizure, etc.). For the ABI-009 cohort, mice received their daily ABI-009 treatment at the start of this fasting period. At the end of the 4 hour fast, baseline blood glucose and lactate values were collecting using point-of-care meters and the tail-prick method. Mice were then injected by IP with 2 g/kg dextrose (10 microliters/gram body weight of 200 mg/mL glucose in 1×PBS, 0.2 micron sterile filtered) using an insulin syringe (31-gauge, 6 mm length, 3/10 cc, BD Veo Ultra-Fine needle). Glucose and lactate levels were measured using a minimally invasive tail-prick method at designated timepoints post-injection.

SMILES | developmental weight gain and maximum body size (Ndufs4(KO) mice [1]) | impact on disease (overall) / disease or survival [2] | median survival ([2]; Ndufs4(KO) mice treated from weaning (P21) via chow, untreated 60) | survival [2] | onset of symptoms: forelimb clasping, ataxia, and circling (Ndufs4(KO) mice [3]) | performance on rotarod assay (Ndufs4(KO) mice [4]) | cachexia (Ndufs4(KO) mice [5]) | hypoglycemia (blood glucose) (Ndufs4(KO) mice [6]) | blood lactate spike in response to a glucose bolus [7] | growth and body size (Ndufs4(KO) mice [5]; compared with mTOR inhibition)
CO[C@H]1C[C@@H]2CC[C@@H](C)[C@@](O)(O2)C(=O)C(=O)N2CCCC[C@H]2C(=O)O[C@H]([C@H](C)C[C@@H]2CC[C@@H](O)[C@H](OC)C2)CC(=O)[C@H](C)/C=C(\C)[C@@H](O)[C@@H](OC)C(=O)[C@H](C)C[C@H](C)/C=C/C=C/C=C/1C [rapamycin] | significant reductions | – | – | – | – | – | – | – | – | –
C[C@H](NC(=O)c1c(N)nn2cccnc12)c1cc2cccc(C#Cc3cnn(C)c3)c2c(=O)n1-c1ccccc1 [IPI-549, 2-amino-N-[(1S)-1-[8-[2-(1-methylpyrazol-4-yl)ethynyl]-1-oxo-2-phenylisoquinolin-3-yl]ethyl]pyrazolo[1,5-a]pyrimidine-3-carboxamide] | – | attenuated disease | 110 days | markedly extended survival | significantly delayed the onset | improved | prevented | prevented | similarly prevented the lactate sequelae | –
Cc1nc(NC(=O)N2CCC[C@H]2C(N)=O)sc1-c1ccnc(C(C)(C)C(F)(F)F)c1 [BYL719, (2S)-1-N-[4-methyl-5-[2-(1,1,1-trifluoro-2-methylpropan-2-yl)pyridin-4-yl]-1,3-thiazol-2-yl]pyrrolidine-1,2-dicarboxamide] | – | only modestly impacting disease | – | extension of survival | statistically significant delay in symptom onset | – | – | – | – | extremely small body size; also recorded: severely impaired growth and size
